Tests used:
Assay type in all cases: cell-based
[1] = tested on: Penicillium nalgiovense (mould); assay: Challenge test with moulds in MOS / MAS; conditions: for Week 0 (Log cfu/g) / Week 1 (Log cfu/g) / Week 2 (Log cfu/g) / Week 3 (Log cfu/g) / Week 4 (Log cfu/g): 0.10%; for mould growth: KS 0.10%; for Week 1 (Log cfu/g): key: VG: growth; NVG: no growth; for Week 2 (Log cfu/g): key: VG: growth; NVG: no growth; for Week 3 (Log cfu/g): key: VG: growth; NVG: no growth; for Week 4 (Log cfu/g): key: VG: growth; NVG: no growth
Procedure: (§1) Target microorganisms used for the challenge tests (CT) were Zygosaccharomyces bailii (yeast), Aspergillus niger (mould), Penicillium nalgiovense (mould) and Eurotium amstelodami (mould).
(§2) Stock culture of the mould (mould spores suspended in Tryptone Salt 0.1% diluent) was revived on RBA plates by doing a 3-point inoculation. The inoculated RBA plates were incubated at 30° C. for 36 hours or until the colonies sporulated. The spores were then aseptically sub-cultured onto PDA plates for mass harvesting of the spores. The inoculated PDA plates were then incubated for 30° C. for 36 hours or until the colonies sporulated. Then, the spores were aseptically harvested with a sterile cotton swabs and suspended in sterile Tryptone Salt 0.1% diluent. The suspensions were analyzed for mould spore counts on DG18 plates as well as for microbial contamination on PCA with Cycloheximide by spread plating 0.1-0.5 ml of suspension onto the agar plates respectively. Before the challenge test is initiated, the suspension inoculated with the mould spores was diluted aseptically with sterile Tryptone Salt 0.1% to the desired level such that the inoculation level in the product would be 2-3 log of colony-forming-units (cfu) of moulds per gram of product.
(§3) Challenge Test with moulds was according to the following steps: 1) Add 100 g of MOS into a 250 ml sterile Schott bottle with screw-cap cover; 2) Add 0.1 to 2 ml of mould (A. niger/P. nalgiovence/E. amstelodami) inoculum to meet the target inoculum of 10^2-10^3 cfu/g of MOS into the 100 g MOS and shake to mix well; 3) Pour 35 g of the inoculated MOS into a petri dish. Perform this in duplicate; 4) Pipette 1 g of inoculated MOS from the Schott bottle into 9 ml sterile Tryptone Salt 0.1% diluents and vortex. Perform this in duplicate; 5) Plate 0.1-0.5 ml of inoculated Tryptone Salt 0.1% onto DG18 plates at appropriate dilutions by Spread Plate Method. Incubate the agar plates at 25° C. for 5 days to enumerate the initial mould count; 6) Incubate the inoculated MOS in petri dishes at 30° C. for a week. Monitor for mould growth by visual observation after one week. Perform this mould growth monitoring for a period of 4 weeks; 7) The control was prepared by repeating steps 3 to 6 without using any inoculum. The control was plated onto PCA with Cycloheximide plates.
(§4) The method for producing MAS was the same as for the MOS production in experiment 4. The preparation of the microorganism cultures as well as the challenge tests were identical to the ones described in experiment 4 as well.

[2] = tested on: Eurotium amstelodami (mould); assay: Challenge test with moulds in MOS / MAS; conditions: for Week 0 (Log cfu/g) / Week 1 (Log cfu/g) / Week 2 (Log cfu/g) / Week 3 (Log cfu/g) / Week 4 (Log cfu/g): 0.10%; for mould growth: KS 0.10%; for Week 1 (Log cfu/g): key: VG: growth; NVG: no growth; for Week 2 (Log cfu/g): key: VG: growth; NVG: no growth; for Week 3 (Log cfu/g): key: VG: growth; NVG: no growth; for Week 4 (Log cfu/g): key: VG: growth; NVG: no growth
Procedure: as §1, §2, §3, §4

Aspergillus niger = assay: Challenge test in fresh and aged oyster sauce (Example 3); conditions: oyster sauce aged 0 to 6 months; KS 0.10 wt %, garlic EO 0.12 wt %; one week to at least 4 weeks after start
Procedure: (§5) Fresh oyster sauce (OS) tested was the commercial MAGGI Oyster Sauce product from Singapore. The OS was first pasteurized according to standard procedures. After cooling, the samples were divided into 3 groups: A) a negative control group where just 5% of sterilized water was added; B) a positive control group where potassium sorbate (KS) was added to a final concentration of 0.10 wt %; and group C) where a garlic EO acacia gum emulsion (1:1 wt ratio) was added to a final concentration of the EO of 0.12 wt %. Potassium sorbate (E number 202) is widely used as a food preservative and serves here as a positive control. Garlic EO is from Synthite Industries. It was emulsified with acacia gum in the same way as the oregano EO in Example 1.
(§6) The three OS samples were stored (i.e. aged) at 30° C. and ca. 65% relative humidity.
(§7) Microbiological challenge tests were performed directly after preparation of the OS samples, labelled as 0 month, and then after 3 and 6 months of storage, respectively. The challenge tests were performed in the same way as described in Example 1. However, instead of using Saccharomyces cerevisiae as spoilage culture, individual cultures of Aspergillus niger, Penicillium nalgiovense and Eurotium amstelodami were used.

Eurotium amstelodami = assay: as above; conditions: oyster sauce aged 0 to 6 months; KS 0.10 wt %, garlic EO 0.12 wt %; one week to at least 4 weeks after start
Procedure: as §5, §6, §7

Penicillium nalgiovense = assay: as above; conditions: oyster sauce aged 0 to 6 months; KS 0.10 wt %, garlic EO 0.12 wt %; one week to at least 4 weeks after start
Procedure: as §5, §6, §7

[3] = MAGGI Abalone Sauce, age 0 month
[4] = MAGGI Abalone Sauce, age 1 month
[5] = MAGGI Abalone Sauce, age 3 month
[6] = MAGGI Abalone Sauce, age 6 month
[7] = MAGGI Abalone Sauce, age 10 month
[8] = MAGGI Abalone Sauce, age 12 month
[9] = MAGGI Abalone Sauce, up to 12 months, clove leaf oil 0.06 wt % and 0.15 wt %
[10] = MAGGI Oyster Sauce, garlic EO 0.06 wt % and 0.12 wt %
[11] = MAGGI Oyster Sauce, age 0 month

C/C=C/C=C/C(=O)[O-].[K+] [KS, potassium sorbate]
3.86 Log cfu/g: Week 0 (Log cfu/g) [1, 7]
1.73 Log cfu/g: Week 0 (Log cfu/g) [1, 4]
NVG: Week 1 (Log cfu/g) [1, 3] | Week 2 (Log cfu/g) [1, 3] | Week 3 (Log cfu/g) [1, 3] | Week 4 (Log cfu/g) [1, 3] | Week 1 (Log cfu/g) [1, 4] | Week 2 (Log cfu/g) [1, 4] | Week 3 (Log cfu/g) [1, 4] | Week 4 (Log cfu/g) [1, 4] | Week 1 (Log cfu/g) [1, 5] | Week 2 (Log cfu/g) [1, 5] | Week 3 (Log cfu/g) [1, 5] | Week 4 (Log cfu/g) [1, 5] | Week 1 (Log cfu/g) [1, 6] | Week 2 (Log cfu/g) [1, 6] | Week 3 (Log cfu/g) [1, 6] | Week 4 (Log cfu/g) [1, 6] | Week 1 (Log cfu/g) [1, 7] | Week 2 (Log cfu/g) [1, 7] | Week 3 (Log cfu/g) [1, 7] | Week 4 (Log cfu/g) [1, 7] | Week 1 (Log cfu/g) [1, 8] | Week 2 (Log cfu/g) [1, 8] | Week 3 (Log cfu/g) [1, 8] | Week 4 (Log cfu/g) [1, 8] | Week 1 (Log cfu/g) [1, 11] | Week 2 (Log cfu/g) [1, 11] | Week 3 (Log cfu/g) [1, 11] | Week 4 (Log cfu/g) [1, 11] | Week 1 (Log cfu/g) [2, 3] | Week 2 (Log cfu/g) [2, 3] | Week 3 (Log cfu/g) [2, 3] | Week 4 (Log cfu/g) [2, 3] | Week 1 (Log cfu/g) [2, 4] | Week 2 (Log cfu/g) [2, 4] | Week 3 (Log cfu/g) [2, 4] | Week 4 (Log cfu/g) [2, 4] | Week 1 (Log cfu/g) [2, 5] | Week 2 (Log cfu/g) [2, 5] | Week 3 (Log cfu/g) [2, 5] | Week 4 (Log cfu/g) [2, 5] | Week 1 (Log cfu/g) [2, 6] | Week 2 (Log cfu/g) [2, 6] | Week 3 (Log cfu/g) [2, 6] | Week 4 (Log cfu/g) [2, 6] | Week 1 (Log cfu/g) [2, 7] | Week 2 (Log cfu/g) [2, 7] | Week 3 (Log cfu/g) [2, 7] | Week 4 (Log cfu/g) [2, 7] | Week 1 (Log cfu/g) [2, 8] | Week 2 (Log cfu/g) [2, 8] | Week 3 (Log cfu/g) [2, 8] | Week 4 (Log cfu/g) [2, 8] | Week 1 (Log cfu/g) [2, 11] | Week 2 (Log cfu/g) [2, 11] | Week 3 (Log cfu/g) [2, 11] | Week 4 (Log cfu/g) [2, 11]
2.71 Log cfu/g: Week 0 (Log cfu/g) [1, 5]
2.93 Log cfu/g: Week 0 (Log cfu/g) [2, 3]
4.079 Log cfu/g: Week 0 (Log cfu/g) [1, 11]
2.67 Log cfu/g: Week 0 (Log cfu/g) [2, 6]
2.03 Log cfu/g: Week 0 (Log cfu/g) [1, 6]
2.204 Log cfu/g: Week 0 (Log cfu/g) [2, 11]
1.54 Log cfu/g: Week 0 (Log cfu/g) [1, 3] | Week 0 (Log cfu/g) [2, 4]
2.38 Log cfu/g: Week 0 (Log cfu/g) [2, 8]
not detected: mould growth [1, 9] | mould growth [1, 10] | mould growth [2, 9] | mould growth [2, 10]
2.69 Log cfu/g: Week 0 (Log cfu/g) [2, 5]
no detectable growth: growth of the mould strain (Aspergillus niger) | growth of the mould strain (Eurotium amstelodami) | growth of the mould strain (Penicillium nalgiovense)
3.26 Log cfu/g: Week 0 (Log cfu/g) [1, 8]
3.80 Log cfu/g: Week 0 (Log cfu/g) [2, 7]
